Reference: patent US10280170B2, “Substituted 4,5,6,7-tetrahydro-pyrazolo[1,5-a]pyrazine derivatives and 5,6,7,8-tetrahydro-4H-pyrazolo[1,5-a][1,4]diazepine derivatives as Ros1 inhibitors” (Janssen Pharmaceutica NV, priority 2014, dated 2019)
Like-named read-outs stand apart in the source and are kept apart here.

Columns and labels:
[1] = tested on: HCC78 non-small cell lung cancer cells; assay: HCC78 cell proliferation assay; assay type: cell-based; conditions: Homo sapiens, HCC78, 96 h, read-out: HCC-78 PROL pEC50 (converted)
Procedure, shortened: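 HCC78 NSCLC cells (~1000/well) in RPMI-1640 with 10% FBS were treated 24 h after seeding and exposed to compound for 4 days at 37 °C. Viability was read by MTT, with absorbance at 538 nm after DMSO/glycine solubilization.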

[2] = target: T1, Ba/F3 cells containing Ros1 wild-type protein (Homo sapiens, UniProt P08922, cells depend on it, form not given); assay: Ba/F3-Ros1 cell proliferation assay, wild-type Ros1; assay type: cell-based, murine; conditions: without IL-3
T1 construct: The background only speaks of 'a number of different unrelated proteins' and names SLC34A2-ROS1 for HCC78 cells
T1 sequence (P08922 whole entry, stated change not applied): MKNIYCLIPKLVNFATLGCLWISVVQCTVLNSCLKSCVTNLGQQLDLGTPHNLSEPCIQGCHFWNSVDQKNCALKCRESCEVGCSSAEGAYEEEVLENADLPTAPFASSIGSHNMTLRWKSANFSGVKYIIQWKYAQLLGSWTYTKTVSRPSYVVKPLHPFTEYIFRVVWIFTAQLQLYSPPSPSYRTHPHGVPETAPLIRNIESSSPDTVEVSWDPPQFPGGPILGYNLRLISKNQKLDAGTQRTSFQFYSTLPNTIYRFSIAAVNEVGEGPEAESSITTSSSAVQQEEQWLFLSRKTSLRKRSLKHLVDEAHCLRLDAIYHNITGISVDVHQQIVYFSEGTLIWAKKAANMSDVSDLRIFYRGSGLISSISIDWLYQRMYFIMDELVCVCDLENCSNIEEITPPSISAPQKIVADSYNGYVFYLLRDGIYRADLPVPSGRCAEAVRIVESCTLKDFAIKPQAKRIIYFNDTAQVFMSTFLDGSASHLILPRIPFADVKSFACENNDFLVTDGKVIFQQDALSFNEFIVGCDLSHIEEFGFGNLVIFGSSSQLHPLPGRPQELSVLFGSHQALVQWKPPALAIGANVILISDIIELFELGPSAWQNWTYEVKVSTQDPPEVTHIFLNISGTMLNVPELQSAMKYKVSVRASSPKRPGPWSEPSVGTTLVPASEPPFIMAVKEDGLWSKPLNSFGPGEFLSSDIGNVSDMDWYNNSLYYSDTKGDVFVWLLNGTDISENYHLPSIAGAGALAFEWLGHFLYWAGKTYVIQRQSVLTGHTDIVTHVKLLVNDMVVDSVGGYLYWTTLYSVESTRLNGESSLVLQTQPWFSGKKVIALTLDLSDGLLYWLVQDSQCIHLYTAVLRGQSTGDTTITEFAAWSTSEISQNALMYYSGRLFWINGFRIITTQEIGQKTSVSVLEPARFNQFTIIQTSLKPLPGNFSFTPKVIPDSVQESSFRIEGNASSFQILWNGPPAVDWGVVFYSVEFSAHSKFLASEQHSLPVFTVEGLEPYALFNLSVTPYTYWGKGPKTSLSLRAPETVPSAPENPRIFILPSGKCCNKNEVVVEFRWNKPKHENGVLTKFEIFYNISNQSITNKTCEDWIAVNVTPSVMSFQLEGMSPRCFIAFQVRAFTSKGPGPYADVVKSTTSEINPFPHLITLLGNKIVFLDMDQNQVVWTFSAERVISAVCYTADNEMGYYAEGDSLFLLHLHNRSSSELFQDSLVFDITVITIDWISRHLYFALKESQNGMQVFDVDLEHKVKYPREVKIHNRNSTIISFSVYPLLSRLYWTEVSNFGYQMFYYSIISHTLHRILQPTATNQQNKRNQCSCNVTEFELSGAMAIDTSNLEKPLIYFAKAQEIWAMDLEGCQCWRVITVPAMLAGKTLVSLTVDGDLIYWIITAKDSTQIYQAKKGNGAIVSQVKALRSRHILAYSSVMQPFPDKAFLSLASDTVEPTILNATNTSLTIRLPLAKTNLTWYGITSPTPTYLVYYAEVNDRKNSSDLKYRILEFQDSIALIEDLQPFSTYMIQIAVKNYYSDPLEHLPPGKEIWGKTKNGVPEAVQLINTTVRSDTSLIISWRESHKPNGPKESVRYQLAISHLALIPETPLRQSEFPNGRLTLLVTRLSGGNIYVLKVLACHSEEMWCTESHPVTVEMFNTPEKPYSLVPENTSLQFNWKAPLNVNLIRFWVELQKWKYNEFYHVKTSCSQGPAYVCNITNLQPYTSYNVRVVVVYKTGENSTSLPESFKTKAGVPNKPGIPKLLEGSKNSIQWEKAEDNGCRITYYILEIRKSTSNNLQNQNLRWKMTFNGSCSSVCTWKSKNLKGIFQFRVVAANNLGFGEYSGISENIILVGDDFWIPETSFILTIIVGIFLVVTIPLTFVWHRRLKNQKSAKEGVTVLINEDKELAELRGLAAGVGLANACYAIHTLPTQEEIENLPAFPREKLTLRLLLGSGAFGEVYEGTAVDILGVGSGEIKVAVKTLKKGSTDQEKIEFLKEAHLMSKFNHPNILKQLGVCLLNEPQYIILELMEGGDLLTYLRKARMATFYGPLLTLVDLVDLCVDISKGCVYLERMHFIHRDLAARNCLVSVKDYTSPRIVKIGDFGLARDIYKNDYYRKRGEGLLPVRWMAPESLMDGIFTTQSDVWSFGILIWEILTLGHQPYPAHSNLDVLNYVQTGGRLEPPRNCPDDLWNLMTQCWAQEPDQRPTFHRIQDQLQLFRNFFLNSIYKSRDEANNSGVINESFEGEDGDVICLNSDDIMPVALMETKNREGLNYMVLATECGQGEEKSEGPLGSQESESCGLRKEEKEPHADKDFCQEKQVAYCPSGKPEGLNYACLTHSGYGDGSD
Procedure, shortened: (§1)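 Ba/F3 cells expressing wild-type, L2026M or G2032R Ros1, 20000 cells/well in phenol red-free RPMI-1640 with 10% FBS, 2 mM L-glutamine, exposed to compound for 24 h at 37 °C, 5% CO2. Viability read by Alamar Blue (resazurin) fluorescence, ex 540/em 590 nm, after 4 h further incubation.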

[3] = tested on: Ros pY2274 in HCC78 cells; assay: pROS1 immunofluorescence assay in HCC78 cells; assay type: cell-based; conditions: Homo sapiens, read-out: HCC78-pRos1 pIC50 (converted)
Procedure: pROS1 Immunofluorescence Assay in HCC78 Cells
Approximately 20000 HCC78 non-small cell lung cancer cells in 180 μl of cell culture medium (RPMI-1640, 10% FBS, 2 mM L-Glutamine, 10 mM Hepes, 1 mM sodium pyruvate, 4.5 g/L glucose, 1.5 g/L sodium bicarbonate, 25 μg/ml Gentamycin) were seeded in each well of a 96-well polystyrene, poly-D-lysine coated plate and incubated at 37° C. and 5% CO2. After 24 hours, compounds were diluted in cell culture medium from which 20 μl was added to the wells containing cells and incubated for 4 hours at 37° C. and 5% CO2. The medium was removed and the cells were fixed by adding 100 μl of 5% formaldehyde in TBS (tris-buffered saline) (50 mM Tris.HCl, pH 7.4, 150 mM NaCl) and incubating for 15 minutes at room temperature. The formaldehyde was removed and replaced with methanol for 10 minutes at room temperature, after which the cells were washed 3 times with TBS containing 1% Triton X-100 and incubated in Odyssee (Li-Cor) blocking buffer for 1 hour at room temperature. The cells were then incubated with the primary rabbit antibody directed against Ros pY2274 (cst-3078) diluted 1/200 in blocking buffer for 24 hours at room temperature. The cells were washed three times with TBS containing 0.1% Triton X-100 and incubated with a secondary anti-rabbit antibody conjugated to the fluorescent dye Alexafluor 680 in blocking buffer for 1 hour at room temperature. The cells were washed three times with TBS containing 0.1% Triton X-100 and left to dry before measuring RFUs (Relative Fluorescence Units) at 700 nm using a fluorescence imager.
The same experiment was performed using total Ros1 antibody (sc-6347) diluted 1/1000 instead of Ros1 pY2274 antibody and an anti-goat antibody conjugated to IRDye800cw as a secondary antibody. RFUs were measured at […]. The signals from total Ros1 detection were used to normalize the Ros1 pY2274 values.

[4] = target: T2, Ros1 enzyme (Homo sapiens, UniProt P08922); assay: Ros1 enzymatic assay; assay type: biochemical; conditions: Ros1 enzymatic assay; read-out: ROS1 pIC50 (converted)
T2 construct: 0.5 μg/ml Ros1 enzyme
T2 sequence (P08922 28-2347): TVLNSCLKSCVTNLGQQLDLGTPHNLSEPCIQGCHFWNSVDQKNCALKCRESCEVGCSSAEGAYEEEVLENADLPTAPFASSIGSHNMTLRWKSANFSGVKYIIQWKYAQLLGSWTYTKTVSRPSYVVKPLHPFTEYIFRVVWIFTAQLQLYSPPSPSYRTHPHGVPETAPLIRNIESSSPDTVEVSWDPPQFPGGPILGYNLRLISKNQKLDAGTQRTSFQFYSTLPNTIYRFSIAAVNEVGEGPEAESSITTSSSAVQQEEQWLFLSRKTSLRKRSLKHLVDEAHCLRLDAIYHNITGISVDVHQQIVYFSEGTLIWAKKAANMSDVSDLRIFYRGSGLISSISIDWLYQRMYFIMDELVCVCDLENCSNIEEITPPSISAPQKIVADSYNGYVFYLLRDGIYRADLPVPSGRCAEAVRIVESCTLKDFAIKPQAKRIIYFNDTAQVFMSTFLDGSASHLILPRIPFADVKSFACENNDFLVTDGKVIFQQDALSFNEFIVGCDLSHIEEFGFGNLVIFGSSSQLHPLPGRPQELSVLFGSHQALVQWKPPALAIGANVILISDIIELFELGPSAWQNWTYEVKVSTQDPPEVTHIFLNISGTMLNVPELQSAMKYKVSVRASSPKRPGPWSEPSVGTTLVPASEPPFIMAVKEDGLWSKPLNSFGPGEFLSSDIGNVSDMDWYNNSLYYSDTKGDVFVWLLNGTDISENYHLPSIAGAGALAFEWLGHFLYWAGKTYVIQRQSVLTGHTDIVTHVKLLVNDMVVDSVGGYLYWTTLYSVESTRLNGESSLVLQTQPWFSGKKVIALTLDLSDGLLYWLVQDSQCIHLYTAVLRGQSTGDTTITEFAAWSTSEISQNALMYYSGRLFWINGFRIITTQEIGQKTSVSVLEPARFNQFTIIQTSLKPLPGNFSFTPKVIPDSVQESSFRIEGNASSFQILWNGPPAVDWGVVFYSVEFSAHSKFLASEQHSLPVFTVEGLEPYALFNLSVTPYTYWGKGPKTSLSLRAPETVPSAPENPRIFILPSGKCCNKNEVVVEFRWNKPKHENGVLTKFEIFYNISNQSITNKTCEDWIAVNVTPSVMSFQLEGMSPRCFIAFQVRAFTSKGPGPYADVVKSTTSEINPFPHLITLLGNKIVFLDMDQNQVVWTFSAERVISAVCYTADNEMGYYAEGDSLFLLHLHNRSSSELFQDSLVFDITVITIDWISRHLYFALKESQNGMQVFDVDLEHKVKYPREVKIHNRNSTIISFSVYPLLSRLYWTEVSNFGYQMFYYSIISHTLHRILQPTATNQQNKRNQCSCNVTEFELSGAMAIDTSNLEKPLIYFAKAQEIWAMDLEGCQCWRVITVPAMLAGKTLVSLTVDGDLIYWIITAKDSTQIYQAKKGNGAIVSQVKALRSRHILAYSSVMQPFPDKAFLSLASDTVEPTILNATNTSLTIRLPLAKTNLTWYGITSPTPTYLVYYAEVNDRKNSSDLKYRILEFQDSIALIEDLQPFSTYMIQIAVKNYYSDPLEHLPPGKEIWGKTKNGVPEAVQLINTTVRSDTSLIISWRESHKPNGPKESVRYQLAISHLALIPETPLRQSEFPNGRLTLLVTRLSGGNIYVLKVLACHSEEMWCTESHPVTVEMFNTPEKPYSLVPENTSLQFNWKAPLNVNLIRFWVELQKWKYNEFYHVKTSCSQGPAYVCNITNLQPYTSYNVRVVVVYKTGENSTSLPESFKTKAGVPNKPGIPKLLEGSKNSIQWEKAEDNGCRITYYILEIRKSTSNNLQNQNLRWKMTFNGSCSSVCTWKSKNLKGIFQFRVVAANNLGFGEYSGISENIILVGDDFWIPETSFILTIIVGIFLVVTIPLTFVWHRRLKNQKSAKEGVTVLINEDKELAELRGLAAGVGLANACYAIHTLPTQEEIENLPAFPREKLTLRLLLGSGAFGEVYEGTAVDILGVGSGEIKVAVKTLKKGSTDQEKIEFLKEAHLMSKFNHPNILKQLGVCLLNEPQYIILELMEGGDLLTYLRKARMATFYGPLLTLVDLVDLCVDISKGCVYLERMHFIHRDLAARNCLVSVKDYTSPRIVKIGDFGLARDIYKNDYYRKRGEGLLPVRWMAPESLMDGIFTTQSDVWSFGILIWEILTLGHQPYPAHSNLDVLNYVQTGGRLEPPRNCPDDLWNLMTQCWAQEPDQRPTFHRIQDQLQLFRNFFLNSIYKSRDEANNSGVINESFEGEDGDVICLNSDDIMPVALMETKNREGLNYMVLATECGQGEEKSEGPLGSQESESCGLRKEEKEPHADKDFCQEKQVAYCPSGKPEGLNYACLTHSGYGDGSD
Procedure, shortened: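 Signal came from streptavidin-coupled imaging beads binding radiolabelled IRS-Tide after a 120 min room-temperature kinase reaction, quenched with 5 mM EDTA and 50 μM cold ATP. Enzyme mix held Ros1 at 0.5 μg/ml; substrate mix held 6 μg/ml IRS-Tide and 20 μM ATP.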

[5] = tested on: Ba/F3 cells containing Ros1 wild-type protein + IL-3; assay: Ba/F3-Ros1 cell proliferation counter-screen, wild-type protein in the presence of 10 ng/ml murine IL-3; assay type: cell-based; conditions: Mus musculus, BaF3, 24 h, read-out: BaF3-ROS1 + IL3 pIC50 (converted)
Procedure, shortened: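 Wild-type Ros1 Ba/F3 cells, cultured with 10 ng/ml murine IL-3, are exposed to compound for 24 h at 37 °C; Alamar Blue fluorescence after 4 h reports cell viability.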

[6] = target: Ba/F3 cells containing Ros1 with a mutation at the gatekeeper residue (L2026M) (Homo sapiens, UniProt P08922, L2026M, cells depend on it, form not given); assay: Ba/F3-Ros1 cell proliferation assay, L2026M gatekeeper mutant; assay type: cell-based, murine; conditions: without IL-3
Ba/F3 cells containing Ros1 with a mutation at the gatekeeper residue (L2026M), sequence (P08922 whole entry L2026M, form open): as the sequence (P08922 whole entry, stated change not applied) above, with L2026M counted along it
Procedure, shortened: as §1

[7] = HCC78 cells, 4 hours, Ros pY2274 normalized to total Ros1
[8] = counter-screen, wild-type, 10 ng/ml murine IL-3

CC(C)c1ccc(COc2ccc(-c3c(-c4ccncc4)nn4c3C(=O)N(C)CC4)cc2)cc1 [Compound 48]
EC50 ([1]; HCC78 cells, 4 days, MTT): 398 nM
BaF3-ROS1-IL3 pIC50 [2]: 7.1
IC50 [3, 7]: 63.1 nM
IC50 [4]: 31.6 nM
melting point: 155 °C
CC50 [5, 8]: > 10000 nM

COc1cc(-c2c(-c3ccnc(N)c3)nn3c2C(=O)N(C)CC3)ccc1OCc1ccc(C(C)C)cc1 [Compound 150]
EC50 [1]: 39.8 nM
BaF3-ROS1-IL3 pIC50 [2]: 7.6
IC50 ([3]; HCC78, 4 h): 10 nM
IC50 [4]: 7.94 nM
Ba/F3 Ros1 L2026M (-IL-3) pIC50 [6]: 7.4
CC50 [5]: > 10000 nM

CC(C)c1ccc(COc2ccc(-c3c(-c4ccncc4F)nn4c3C(=O)NCC4)cc2)cc1 [Compound 151]
EC50 [1]: 63.1 nM
BaF3-ROS1-IL3 pIC50 [2]: 7.4
IC50 ([3]; HCC78, 4 h): 20 nM
IC50 [4]: 31.6 nM
Ba/F3 Ros1 L2026M (-IL-3) pIC50 [6]: 7.1
CC50 [5]: > 10000 nM

CC(C)c1ccc(COc2ccc(-c3c(-c4ccncn4)nn4c3C(=O)N(CC3(C)COC3)CC4)cc2)cc1 [Compound 163]
EC50 ([1]; HCC78 cells, 4 days, MTT): 126 nM
BaF3-ROS1-IL3 pIC50 [2]: 7.1
IC50 [3, 7]: 316 nM
IC50 [4]: 126 nM
Ba/F3 Ros1 L2026M (-IL-3) pIC50 [6]: 7.1
CC50 [5, 8]: > 10000 nM

CC(C)c1ccc(COc2ccc(-c3c(-c4ccncc4)nn4c3CN(CC(=O)NCCO)CC4)cc2)cc1 [Compound 175]
EC50 [1]: 398 nM
BaF3-ROS1-IL3 pIC50 [2]: 6.9
IC50 [4]: 100 nM
melting point: 189 °C
Ba/F3 Ros1 L2026M (-IL-3) pIC50 [6]: 6.8
CC50 [5]: 5010 nM

CC(C)c1ccc(COc2ccc(-c3c(-c4ccncc4)nn4c3CN(CCO)CC4)cc2)cc1 [Compound 176]
EC50 ([1]; HCC78 cells, 4 days, MTT): 79.4 nM
BaF3-ROS1-IL3 pIC50 [2]: 6.9
IC50 [4]: 158 nM
melting point: 150 °C
Ba/F3 Ros1 L2026M (-IL-3) pIC50 [6]: 7.1
CC50 [5, 8]: > 10000 nM

CC(C)c1ccc(COc2ccc(-c3c(-c4ccncc4)nn4c3CN(CC(=O)N(C)C)CC4)cc2)cc1 [Compound 177]
EC50 ([1]; HCC78 cells, 4 days, MTT): 398 nM
BaF3-ROS1-IL3 pIC50 [2]: 6.9
IC50 [4]: 200 nM
melting point: 95 °C
Ba/F3 Ros1 L2026M (-IL-3) pIC50 [6]: 6.6
CC50 [5, 8]: > 10000 nM

CC(C)c1ccc(COc2ccc(-c3c(-c4ccncc4)nn4c3CN(C(=O)CN(C)C)CC4)cc2)cc1 [Compound 181]
EC50 ([1]; HCC78 cells, 4 days, MTT): 2000 nM
BaF3-ROS1-IL3 pIC50 [2]: 5.7
IC50 [3, 7]: 1260 nM
IC50 [4]: 794 nM
CC50 [5, 8]: 5010 nM

CC(O)CN1CCn2nc(-c3ccncc3)c(-c3ccc(OCc4ccc(C(C)C)cc4)cc3)c2C1 (centres unmarked) [Compound 191]
EC50 ([1]; HCC78 cells, 4 days, MTT): 501 nM
BaF3-ROS1-IL3 pIC50 [2]: 6.9
IC50 [4]: 158 nM
melting point: 148 °C
Ba/F3 Ros1 L2026M (-IL-3) pIC50 [6]: 7.0
CC50 [5, 8]: > 10000 nM

CC(C)c1ccc(COc2ccc(-c3c(-c4ccncc4)nn4c3C(=O)NC(CO)C4)cc2)cc1 (centres unmarked) [Compound 193]
EC50 [1]: 200 nM
BaF3-ROS1-IL3 pIC50 [2]: 7.3
IC50 [4]: 79.4 nM
melting point: 254 °C
Ba/F3 Ros1 L2026M (-IL-3) pIC50 [6]: 6.3
CC50 [5]: > 10000 nM

CNCC1Cn2nc(-c3ccncc3)c(-c3ccc(OCc4ccc(C(C)C)cc4)cc3)c2C(=O)N1 (centres unmarked) [Compound 194]
EC50 [1]: 501 nM
BaF3-ROS1-IL3 pIC50 [2]: 6.6
IC50 [4]: 79.4 nM
melting point: 230 °C
Ba/F3 Ros1 L2026M (-IL-3) pIC50 [6]: 6.2
CC50 [5]: 6310 nM

CC(C)c1ccc(COc2ccc(-c3c(-c4ccncc4)nn4c3C(=O)NC(CN(C)CCO)C4)cc2)cc1 (centres unmarked) [Compound 195]
EC50 ([1]; HCC78 cells, 4 days, MTT): 794 nM
BaF3-ROS1-IL3 pIC50 [2]: 6.7
IC50 [4]: 126 nM
melting point: 193 °C
Ba/F3 Ros1 L2026M (-IL-3) pIC50 [6]: 7.0
CC50 [5, 8]: > 10000 nM

CC(C)c1ccc(C2CCc3cc(-c4c(-c5ccncc5)nn5c4C(=O)NCC5)ccc3O2)cc1 (centres unmarked) [Compound 199]
EC50 [1]: 1260 nM
BaF3-ROS1-IL3 pIC50 [2]: 7.1
IC50 [4]: 200 nM
melting point: 262 °C
Ba/F3 Ros1 L2026M (-IL-3) pIC50 [6]: 7.5
CC50 [5]: > 10000 nM

CC(C)c1ccc(C2COc3cc(-c4c(-c5ccncc5)nn5c4C(=O)NCC5)ccc3O2)cc1 (centres unmarked) [Compound 201]
EC50 ([1]; HCC78 cells, 4 days, MTT): 39.8 nM
BaF3-ROS1-IL3 pIC50 [2]: 7.8
IC50 [4]: 25.1 nM
melting point: 290 °C
Ba/F3 Ros1 L2026M (-IL-3) pIC50 [6]: 7.4
CC50 [5, 8]: > 10000 nM

O=C1c2c(-c3ccc(OCc4ccc(OC(F)(F)F)cc4)cc3F)c(-c3ccncc3)nn2CCN1CCO [Compound 206]
EC50 [1]: 100 nM
BaF3-ROS1-IL3 pIC50 [2]: 7.5
IC50 [4]: 39.8 nM
melting point: 140 °C
Ba/F3 Ros1 L2026M (-IL-3) pIC50 [6]: ~7.4
CC50 [5]: > 10000 nM

CC(C)c1ccc(COC2CCN(c3c(-c4ccncc4)nn4c3C(=O)N(C)CC4)CC2)cc1 [Compound 215]
EC50 ([1]; HCC78 cells, 4 days, MTT): 251 nM
BaF3-ROS1-IL3 pIC50 [2]: 7.0
IC50 [4]: 126 nM
melting point: 140 °C
Ba/F3 Ros1 L2026M (-IL-3) pIC50 [6]: 7.2
CC50 [5, 8]: > 10000 nM

COc1cc(C(C)C)ccc1COc1ccc(-c2c(-c3ccncc3)nn3c2C(=O)NCC3)cc1 [Compound 216]
EC50 [1]: 631 nM
BaF3-ROS1-IL3 pIC50 [2]: 7.3
IC50 [4]: 63.1 nM
melting point: 200 °C
Ba/F3 Ros1 L2026M (-IL-3) pIC50 [6]: 6.9
CC50 [5]: > 10000 nM

CC(C)c1ccc(COc2ccc(-c3c(-c4ccnc(CO)c4)nn4c3C(=O)NCC4)cc2)cc1 [Compound 233]
EC50 [1]: 2510 nM
BaF3-ROS1-IL3 pIC50 [2]: 6.5
IC50 [4]: 794 nM
melting point: 232 °C
Ba/F3 Ros1 L2026M (-IL-3) pIC50 [6]: 5.9
CC50 [5]: > 10000 nM
